Test results published in patent publication US12172959B2, “Mono- or di-substituted indole derivatives as dengue viral replication inhibitors” (priority 2015, dated 2024).

Assays:
[1] = system: DENV-2 16681 strain; assay: DENV-2 antiviral assay (eGFP fluorescence, Vero cells); format: cell-based, Dengue virus; conditions: DENV-2 16681 eGFP, MOI 0.5, 3 days
Experimental: The antiviral activity of all the compounds of the invention was tested against the DENV-2 16681 strain which was labeled with enhanced green fluorescent protein (eGPF; Table 1). The culture medium consists of minimal essential medium supplemented with 2% of heat-inactivated fetal calf serum, 0.04% gentamycin (50 mg/mL) and 2 mM of L-glutamine. Vero cells, obtained from ECACC, were suspended in culture medium and 25 μL was added to 384-well plates (2500 cells/well), which already contain the antiviral compounds. Typically, these plates contain a 5-fold serial dilution of 9 dilution steps of the test compound at 200 times the final concentration in 100% DMSO (200 nL). […] Finally, each plate contains wells which are assigned as virus controls (containing cells and virus in the absence of compound), cell controls (containing cells in the absence of virus and compound) and medium controls (containing medium in the absence of cells, virus and compounds). To the wells assigned as medium control, 25 μL of culture medium was added instead of Vero cells. Once the cells were added to the plates, the plates were incubated for 30 minutes at room temperature to allow the cells to distribute evenly within the wells. Next, the plates were incubated in a fully humidified incubator (37° C., 5% CO2) until the next day. Then, DENV-2 strain 16681, labeled with eGFP, was added at a multiplicity of infection (MOI) of 0.5. Therefore, 15 μL of virus suspension was added to all the wells containing test compound and to the wells assigned as virus control. In parallel, 15 μL of culture medium was added to the medium and cell controls. Next, the plates were incubated for 3 days in a fully humidified incubator (37° C., 5% CO2). At the day of the read out, the eGFP fluorescence was measured using an automated fluorescence microscope at 488 nm (blue laser). Using an in-house LIMS system, inhibition dose response curves for each compound were calculated and the half maximal effective concentration (EC50) was determined. Therefore, the percent inhibition (I) for every test concentration is calculated using the following formula: I=100*(ST−SCC)/(SVC−SCC); ST, SCC and SVC are the amount of eGFP signal in the test compound, cell control and virus control wells, respectively. The EC50 represents the concentration of a compound at which the virus replication is inhibited with 50%, as measured by a 50% reduction of the eGFP fluorescent intensity compared to the virus control. The EC50 is calculated using linear interpolation.

[2] = system: Vero cells; conditions: African green monkey
[3] = in vitro; format: cell-based; conditions: African green monkey, CC50
Experimental: (§1) The antiviral activity of the compounds of the invention was tested against DENV-1 strain TC974#666 (NCPV; Table 6), DENV-2 strain 16681 (Table 7), DENV-3 strain H87 (NCPV; Table 8) and DENV-4 strains H241 (NCPV; Table 9A) and SG/06K2270DK1/2005 (Eden; Table 9B) in a RT-qPCR assay. Therefore, Vero cells were infected with either DENV-1, or -2, or -3, or -4 in the presence or absence of test compounds. At day 3 post-infection, the cells were lysed and cell lysates were used to prepare cDNA of both a viral target (the 3′UTR of DENV; Table 2) and a cellular reference gene (β-actin, Table 2). Subsequently, a duplex real time PCR was performed on a Lightcycler480 instrument. The generated Cp value is inversely proportional to the amount of RNA expression of these targets. Inhibition of DENV replication by test compound results in a shift of Cp's for the 3′UTR gene. On the other hand, if a test compound is toxic to the cells, a similar effect on β-actin expression will be observed. The comparative ΔΔCp method is used to calculate EC50, which is based on the relative gene expression of the target gene (3′UTR) normalized with the cellular housekeeping gene (β-actin).
(§2) The culture medium consisted of minimal essential medium supplemented with 2% of heat-inactivated fetal calf serum, 0.04% gentamycin (50 mg/mL) and 2 mM of L-glutamine. Vero cells, obtained from ECACC, were suspended in culture medium and 75 μL/well was added in 96-well plates (10000 cells/well), which already contain the antiviral compounds. […] In addition, each plate contains wells which are assigned as virus controls (containing cells and virus in the absence of compound) and cell controls (containing cells in the absence of virus and compound). Once the cells were added in the plates, the plates were incubated in a fully humidified incubator (37° C., 5% CO2) until the next day. Dengue viruses serotype-1, 2, 3 and 4 were diluted in order to obtain a Cp of ˜22-24 in the assay. Therefore, 25 μL of virus suspension was added to all the wells containing test compound and to the wells assigned as virus control. In parallel, 25 μL of culture medium was added to the cell controls. Next, the plates were incubated for 3 days in a fully humidified incubator (37° C., 5% CO2). After 3 days, the supernatant was removed from the wells and the cells were washed twice with ice-cold PBS (˜100 μL). The cell pellets within the 96-well plates were stored at −80° C. for at least 1 day. Next, RNA was extracted using the Cells-to-CT™ lysis kit, according to the manufacturer's guideline (Life Technologies). The cell lysates can be stored at −80° C. or immediately used in the reverse transcription step.
(§3) Using the LightCycler software and an in-house LIMS system, dose response curves for each compound were calculated and the half maximal effective concentration (EC50) and the half maximal cytotoxic concentration (CC50) were determined.

[4] = system: DENV-2 strain 16681; assay: Tetravalent RT-qPCR assay Protocol A, serotype 2; format: cell-based; conditions: Dengue virus, DENV2, 72 h; Protocol A, RT-qPCR serotype 2 16681, Vero cells, day 3; read-out: EC50
Experimental: as §1, §2
(§4) In preparation of the reverse transcription step, mix A (table 3A) was prepared and 7.57 μL/well was dispensed in a 96-well plate. After addition of 5 μL of the cell lysates, a five minute denaturation step at 75° C. was performed (table 3B). Afterwards, 7.43 μL of mix B was added (table 3C) and the reverse transcription step was initiated (table 3D) to generate cDNA.
(§5) Finally, a RT-qPCR mix was prepared, mix C (table 4A), and 22.02 μL/well was dispensed in 96-well LightCycler qPCR plates to which 3 μL of cDNA was added and the qPCR was performed according to the conditions in table 4B on a LightCycler 480.
as §3

[5] = system: DENV-4 strain H241; assay: Tetravalent RT-qPCR assay Protocol A, serotype 4 H241; format: cell-based; conditions: Dengue virus, DENV4, Vero, 72 h
Experimental: as §1, §2, §4, §5, §3

[6] = system: DENV-3 strain H87; assay: Tetravalent RT-qPCR assay Protocol A, serotype 3; format: cell-based; conditions: Dengue virus, DENV3, 72 h, RT-qPCR serotype 3 H87, Vero cells, day 3
Experimental: as §1, §2, §4, §5, §3

[7] = system: DENV-1 strain TC974#666; assay: Tetravalent RT-qPCR assay Protocol A, serotype 1; format: cell-based; conditions: Dengue virus, DENV1, 72 h, RT-qPCR serotype 1 TC974#666, Vero cells, day 3
Experimental: as §1, §2, §4, §5, §3

SMILES: COc1cc(NC(C(=O)c2c[nH]c3ccc(OC(F)(F)F)cc23)c2ccc(Cl)cc2OC)cc(S(C)(=O)=O)c1 (single isomer, unassigned) [Compound 9B, 2-(4-chloro-2-methoxyphenyl)-2-((3-methoxy-5-(methyl-sulfonyl)phenyl)amino)-1-(5-(trifluoromethoxy)-1H-indol-3-yl)ethanone]
- EC50 [1]: 3.8 nM
- CC50 [2]: 6200 nM

SMILES: COc1cc(NC(C(=O)c2c[nH]c3cc(OC)ccc23)c2ccc(Cl)cc2OC)cc(S(C)(=O)=O)c1 (single isomer, unassigned) [Compound 3B, 2-(4-chloro-2-methoxyphenyl)-1-(6-methoxy-1H-indol-3-yl)-2-((3-methoxy-5-(methylsulfonyl)phenyl)amino)ethanone]
- EC50 [1]: 3.8 nM
- CC50 [2]: > 9700 nM

SMILES: COc1cc(NC(C(=O)c2c[nH]c3cc(OC)c(F)cc23)c2ccc(Cl)cc2OC)cc(S(C)(=O)=O)c1 (single isomer, unassigned) [Compound 5B, 2-(4-chloro-2-methoxyphenyl)-1-(5-fluoro-6-methoxy-1H-indol-3-yl)-2-((3-methoxy-5-(methylsulfonyl)phenyl)amino)ethanone]
- EC50 [1]: 68 nM
- CC50 [2]: 13000 nM

SMILES: COc1cc(NC(C(=O)c2c[nH]c3cc(F)ccc23)c2ccc(Cl)cc2OC)cc(S(C)(=O)=O)c1 (racemic) [Compound 1, 2-(4-chloro-2-methoxyphenyl)-1-(6-fluoro-1H-indol-3-yl)-2-((3-methoxy-5-(methylsulfonyl)phenyl)amino)ethanone]
- EC50 ([1]; Dengue virus, DENV2, Vero, 72 h): 0.52 nM
- CC50 [2]: 5500 nM

SMILES: COc1cc(NC(C(=O)c2c[nH]c3cc(OC)c(OC(F)(F)F)cc23)c2ccc(Cl)cc2OC)cc(S(C)(=O)=O)c1 (single isomer, unassigned) [Compound 10B, 2-(4-chloro-2-methoxyphenyl)-2-((3-methoxy-5-(methylsulfonyl)phenyl)amino)-1-(6-methoxy-5-(trifluoromethoxy)-1H-indol-3-yl)ethanone]
- EC50 [1]: 3.9 nM
- CC50 [2]: 9800 nM

SMILES: COc1cc(NC(C(=O)c2c[nH]c3c(C)cc(OC(F)(F)F)cc23)c2ccc(Cl)cc2OC)cc(S(C)(=O)=O)c1 (single isomer, unassigned) [Compound 11A, 2-(4-chloro-2-methoxyphenyl)-2-((3-methoxy-5-(methylsulfonyl)phenyl)amino)-1-(7-methyl-5-(trifluoromethoxy)-1H-indol-3-yl)ethanone]
- EC50 [1]: 0.085 nM
- CC50 at 3 days [3]: > 2500 nM
- EC50 [4]: 0.051 nM
- EC50 [5]: 11 nM
- EC50 [6]: 1.2 nM
- EC50 [7]: 0.13 nM
- CC50 [2]: 2600 nM

SMILES: COc1cc(NC(C(=O)c2c[nH]c3ccc(C(F)(F)F)cc23)c2ccc(Cl)cc2OC)cc(S(C)(=O)=O)c1 (single isomer, unassigned) [Compound 8A, 2-(4-chloro-2-methoxyphenyl)-2-((3-methoxy-5-(methyl-sulfonyl)phenyl)amino)-1-(5-(trifluoromethyl)-1H-indol-3-yl)ethanone]
- EC50 [1]: 3 nM
- CC50 [2]: 7400 nM

SMILES: COc1cc(NC(C(=O)c2c[nH]c3c(C)c(F)ccc23)c2ccc(Cl)cc2OC)cc(S(C)(=O)=O)c1 (single isomer, unassigned) [Compound 2B, 2-(4-chloro-2-methoxyphenyl)-1-(6-fluoro-7-methyl-1H-indol-3-yl)-2-((3-methoxy-5-(methylsulfonyl)phenyl)amino)ethanone]
- EC50 [1]: 26 nM
- CC50 [2]: 7400 nM

SMILES: COc1cc(NC(C(=O)c2c[nH]c3cc(F)c(C)cc23)c2ccc(Cl)cc2OC)cc(S(C)(=O)=O)c1 (single isomer, unassigned) [Compound 7A, 2-(4-chloro-2-methoxyphenyl)-1-(6-fluoro-5-methyl-1H-indol-3-yl)-2-((3-methoxy-5-(methylsulfonyl)phenyl)amino)ethanone]
- EC50 [1]: 13 nM
- CC50 [2]: 6800 nM

SMILES: COc1cc(NC(C(=O)c2c[nH]c3c(C)c(OC)ccc23)c2ccc(Cl)cc2OC)cc(S(C)(=O)=O)c1 (single isomer, unassigned) [Compound 6B, 2-(4-chloro-2-methoxyphenyl)-2-((3-methoxy-5-(methyl-sulfonyl)phenyl)amino)-1-(6-methoxy-7-methyl-1H-indol-3-yl)ethanone]
- EC50 [1]: 19 nM
- CC50 [2]: 11000 nM

SMILES: COc1cc(NC(C(=O)c2c[nH]c3c(C)cc(OC(F)(F)F)cc23)c2ccc(Cl)cc2OC)cc(S(C)(=O)=O)c1 (single isomer, unassigned) [Compound 11B, 2-(4-chloro-2-methoxyphenyl)-2-((3-methoxy-5-(methylsulfonyl)phenyl)amino)-1-(7-methyl-5-(trifluoromethoxy)-1H-indol-3-yl)ethanone]
- EC50 [1]: 4.1 nM
- CC50 [2]: 9200 nM

SMILES: COc1cc(NC(C(=O)c2c[nH]c3cc(F)ccc23)c2ccc(Cl)cc2OC)cc(S(C)(=O)=O)c1 (single isomer, unassigned) [Compound 1B, 2-(4-chloro-2-methoxyphenyl)-1-(6-fluoro-1H-indol-3-yl)-2-((3-methoxy-5-(methylsulfonyl)phenyl)amino)ethanone]
- EC50 [1]: 12 nM
- CC50 [2]: 6500 nM

SMILES: COc1cc(NC(C(=O)c2c[nH]c3cc(OC)c(C)cc23)c2ccc(Cl)cc2OC)cc(S(C)(=O)=O)c1 (single isomer, unassigned) [Compound 4B, 2-(4-chloro-2-methoxyphenyl)-2-((3-methoxy-5-(methyl-sulfonyl)phenyl)amino)-1-(6-methoxy-5-methyl-1H-indol-3-yl)ethanone]
- EC50 [1]: 36 nM
- CC50 [2]: 12000 nM
